Assay results from US20220298579A1, “COMPOSITIONS AND METHODS FOR PREDICTING SUSCEPTIBILITY OF CANCERS TO SYNTHETIC-LETHAL THERAPIES” (University of Florida Research Foundation, Inc., priority 2019, published 2022).

Tests used:
[1] = system: EBV-positive HH514-16 Burkitt lymphoma (BL) cells; test: DR-GFP reporter assay of HR-mediated DSB repair in BL cells; assay type: cell-based, human; details: increasing concentrations of AG490 (25 μM, 50 μM) added 18 h after DR-GFP + ISce1 transfection, harvested after another 30 h; HH514-16 BL cells
Method: (§1) FIGS. 2A to 2O show STAT3 restricts HR repair through Chk1 in oncovirus-transformed cells. FIGS. 2A to 2K show LCL derived from a healthy subject (FIGS. 2A-2E, 2K) and EBV-positive HH514-16 Burkitt lymphoma (BL) cells (FIGS. 2F-2J, 2K) were transfected with DR-GFP plasmid (FIGS. 2A-2D, 2F-2I) and empty vector pCAGGS (FIGS. 2A, 2F) or ISce1 plasmid (FIGS. 2B-2D, 2G-2I), treated with 25 μM (FIGS. 2C, 2H) or 50 μM (FIGS. 2D, 2I) AG490 (a selective STAT3 inhibitor) after 18 h, and harvested after another 30 h for analysis of GFP-positive cells by flow cytometry (FIGS. 2A-2D, 2F-2I) and immunoblotting for phospho(p)STAT3 and β-actin (FIG. 2K). LCL (FIG. 2E) and BL cells (FIG. 2J) were transfected in parallel with pEGFP to monitor transfection efficiency. […]
(§2) For assessment of cell-cycle distribution, cells were fixed, permeabilized, and stained with anti-EBNA2 antibody and 50 μg/ml propidium iodide supplemented with 1 μg/ml RNase A, as previously described (Hill, E. R. et al. J Virol 87:11438-11446 (2013)). […] Data were acquired using a FACS Calibur and analyzed using FlowJo software. […]

[2] = system: EBV-infected B-cell lines; details: 50 μM AG490; previously demonstrated (Koganti et al. 2014); cited from earlier work
[3] = system: STAT3 phosphorylation; details: Janus kinase inhibitor; literature (Koganti 2014; Meydan 1996); cited from earlier work
[4] = system: LCL derived from a healthy subject; test: DR-GFP reporter assay of HR-mediated DSB repair in LCL; assay type: cell-based, human; details: increasing concentrations of AG490 (25 μM, 50 μM) added 18 h after DR-GFP + ISce1 transfection, harvested after another 30 h
Method: as §1, §2

[5] = system: EBV+ BL cell lines (HH514-16, Akata, and Raji); test: Growth of EBV+ BL cell lines in the presence of Olaparib (live cell enumeration); assay type: cell-based, human; details: Olaparib used alone, effect more pronounced than on LCL
Excerpt: (§3) FIGS. 3A-3F show LCL derived from 3 healthy subjects (FIGS. 3A-3C) and 3 EBV^+ BL cell lines (HH514-16, Akata, and Raji; FIGS. 3D-3F) grown in the presence of Olaparib (added at time 0 and every 3-4 days thereafter) and enumerated for live cells on indicated days. FIGS. 3G-3N show LCL (FIGS. 3G-3J) and HH514-16 BL cells (FIGS. 3K-3N) transfected with DR-GFP plasmid (FIGS. 3G, 3H, 3K, 3L) and empty vector pCAGGS (FIGS. 3G, 3K) or ISce1 plasmid (FIGS. 3H, 3L) versus EJ2 plasmid (FIGS. 3I, 3J, 3M, 3N) and pCAGGS (FIGS. 3I, 3M) or ISce1 plasmid (FIGS. 3J, 3N) and harvested after 48 h for analysis of GFP-positive cells by flow cytometry. Numbers in plots indicate percent GFP-positive cells. Experiments were performed 3 times.
(§4) Newly-infected B cells and previously established EBV-LCL were grown in culture using conditions described (Koganti, S., et al. J Virol 88:516-524 (2014)). For experiments using AG490 and Olaparib, chemicals were added to cultures at time 0. For experiments using Olaparib, the drug was supplemented at the initial concentration every fourth day. For experiments using Bleomycin, the drug was added for an hour, following which cells were washed and placed back in culture.

[6] = system: LCL derived from healthy subjects (EBV-transformed cells); test: Growth of LCL in the presence of Olaparib (live cell enumeration); assay type: cell-based, human; details: Olaparib used alone, added at time 0 and every 3-4 days thereafter; all LCL (3 healthy subjects)
Excerpt: as §3, §4

Row | Compound | percentages of GFP+ cells (HR repair competent) [1] | toxicity to EBV-infected B-cell lines [2] | inhibition of STAT3 phosphorylation [3] | percentages of GFP+ cells (HR repair competent) [4] | sensitivity to PARP inhibition (growth) [5] | reduction in growth [6]
1 | N#C/C(=C/c1ccc(O)c(O)c1)C(=O)NCc1ccccc1 [AG490] | increased | minimally toxic | selectively inhibit STAT3 phosphorylation | increased | – | –
2 | O=C(c1cc(Cc2n[nH]c(=O)c3ccccc23)ccc1F)N1CCN(C(=O)C2CC2)CC1 [Olaparib] | – | – | – | – | exquisite sensitivity | > 50%
